Source: US20180265515A1 (Genentech, Inc., priority 2015, published 2018)

Legend:
[1] = target: T1, isolated recombinant JAK1 kinase domain (Homo sapiens, UniProt P23458); assay: JAK1 enzyme assay (Caliper LabChip, Ki); type: biochemical; conditions: recombinant JAK1 kinase domain, 25 μM ATP
T1 construct: The activity of the isolated recombinant JAK1 and JAK2 kinase domain was measured
Outline: (§1)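 Recombinant JAK1 or JAK2 kinase domain phosphorylating a 5-carboxyfluorescein-labelled JAK3-derived peptide, 30 min at 22° C, stopped with EDTA. Phosphorylated fraction of substrate quantified by Caliper LabChip microfluidic separation. Ki from Morrison tight-binding model corrected for ATP competition (Ki=Ki,app/(1+[ATP]/Km,app)).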

[2] = target: T2, isolated recombinant JAK2 kinase domain (Homo sapiens, UniProt O60674); assay: JAK2 enzyme assay (Caliper LabChip, Ki); type: biochemical; conditions: 25 μM ATP
T2 construct: The activity of the isolated recombinant JAK1 and JAK2 kinase domain was measured
T2 sequence (O60674 849-1124 limits assumed): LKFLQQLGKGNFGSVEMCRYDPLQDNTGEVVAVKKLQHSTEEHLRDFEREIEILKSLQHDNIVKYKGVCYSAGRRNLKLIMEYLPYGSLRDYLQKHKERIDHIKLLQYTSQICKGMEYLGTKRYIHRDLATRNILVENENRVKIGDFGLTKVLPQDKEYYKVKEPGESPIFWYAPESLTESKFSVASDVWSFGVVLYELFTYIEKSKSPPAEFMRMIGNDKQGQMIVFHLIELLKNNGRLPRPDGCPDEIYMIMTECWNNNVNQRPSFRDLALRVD
Outline: as §1

[3] = system: JAK1-dependent STAT6 phosphorylation downstream of IL-13 stimulation in BEAS-2B human bronchial epithelial cells; assay: JAK1 pathway assay in BEAS-2B cells (IL-13 stimulated STAT6 phosphorylation, MSD); type: cell-based; conditions: read-out: P-STAT6 BEAS2B + IL13 IC50
Outline: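 BEAS-2B human bronchial epithelial cells, plated the day before in complete growth medium, were preincubated with compound for 1 hr at 37° C (0.2% DMSO final), then stimulated with IL-13 at its EC90 for 15 min. STAT6 phosphorylation in lysates was read by MSD; EC50 was taken as 50% inhibition versus DMSO control.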

T1 sequence (P23458 875-1153 limits assumed): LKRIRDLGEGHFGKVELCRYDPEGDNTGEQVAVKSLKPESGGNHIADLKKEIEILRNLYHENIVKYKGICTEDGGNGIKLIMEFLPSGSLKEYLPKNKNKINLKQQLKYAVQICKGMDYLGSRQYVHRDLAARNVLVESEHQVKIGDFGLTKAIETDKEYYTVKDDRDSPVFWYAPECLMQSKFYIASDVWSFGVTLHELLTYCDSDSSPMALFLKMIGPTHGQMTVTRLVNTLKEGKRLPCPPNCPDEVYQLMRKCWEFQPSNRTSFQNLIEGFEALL

SMILES | Ki [1] | Ki [2] | IC50 [3]
CSc1ccc(OC(F)F)c(-c2nn(Cc3cn(C4CCN(C5CCOCC5)CC4)nn3)cc2NC(=O)c2cnn3cccnc23)c1 [Example 81, N-(3-(2-(difluoromethoxy)-5-(methylthio)phenyl)-1-((1-(1-(tetrahydro-2H-pyran-4-yl)piperidin-4-yl)-1H-1,2,3-triazol-4-yl)methyl)-1H-pyrazol-4-yl)pyrazolo[1,5-a]pyrimidine-3-carboxamide] | 0.35 nM | 0.23 nM | 8.1 nM
COCC(=O)N1CCN(CC2CCN(C(=O)Cn3cc(NC(=O)c4cnn5cccnc45)c(-c4cc(SC)ccc4OC(F)F)n3)CC2)CC1 [Example 82, N-[3-[2-(difluoromethoxy)-5-methylsulfanyl-phenyl]-1-[2-[4-[[4-(2-methoxyacetyl)piperazin-1-yl]methyl]-1-piperidyl]-2-oxo-ethyl]pyrazol-4-yl]pyrazolo[1,5-a]pyrimidine-3-carboxamide] | 0.29 nM | 0.41 nM | 34 nM
COC(=O)N1CCN(CC2CCN(C(=O)Cn3cc(NC(=O)c4cnn5cccnc45)c(-c4cc(SC)ccc4OC(F)F)n3)CC2)CC1 [Example 83, methyl 4-[[1-[2-[3-[2-(difluoromethoxy)-5-methylsulfanyl-phenyl]-4-(pyrazolo[1,5-a]pyrimidine-3-carbonylamino)pyrazol-1-yl]acetyl]-4-piperidyl]methyl]piperazine-1-carboxylate] | 0.3 nM | 0.44 nM | 10 nM
CSc1ccc(OC(F)F)c(-c2nn(CC(=O)N3CCC(N4CCO[C@@H](CO)C4)CC3)cc2NC(=O)c2cnn3cccnc23)c1 [Example 86, N-[3-[2-(difluoromethoxy)-5-methylsulfanyl-phenyl]-1-[2-[4-[(2R)-2-(hydroxymethyl)morpholin-4-yl]-1-piperidyl]-2-oxo-ethyl]pyrazol-4-yl]pyrazolo[1,5-a]pyrimidine-3-carboxamide] | 0.31 nM | 0.42 nM | 120 nM

Further molecules by falling Ki [1], results first:

Ki [1] | Ki [2] | SMILES | IC50 [3]
0.39 nM | 0.61 nM | CSc1ccc(OC(F)F)c(-c2nn(CC(=O)N3CCC(CN4CCN(CC(=O)N(C)C)C[C@H]4C)CC3)cc2NC(=O)c2cnn3cccnc23)c1 [Example 87, N-[3-[2-(difluoromethoxy)-5-methylsulfanyl-phenyl]-1-[2-[4-[[(2R)-4-[2-(dimethylamino)-2-oxo-ethyl]-2-methyl-piperazin-1-yl]methyl]-1-piperidyl]-2-oxo-ethyl]pyrazol-4-yl]pyrazolo[1,5-a]pyrimidine-3-carboxamide] | 35 nM
0.37 nM | 0.53 nM | CSc1ccc(OC(F)F)c(-c2nn(CC(=O)N3CCC(N4CCO[C@H](CO)C4)CC3)cc2NC(=O)c2cnn3cccnc23)c1 [Example 84, N-[3-[2-(difluoromethoxy)-5-methylsulfanyl-phenyl]-1-[2-[4-[(2S)-2-(hydroxymethyl)morpholin-4-yl]-1-piperidyl]-2-oxo-ethyl]pyrazol-4-yl]pyrazolo[1,5-a]pyrimidine-3-carboxamide] | 44 nM
0.33 nM | 0.38 nM | CSc1ccc(OC(F)F)c(-c2nn(CC(=O)N3CCC(N4CCOCC4CO)CC3)cc2NC(=O)c2cnn3cccnc23)c1 (stereo not drawn) [Example 85, N-[3-[2-(difluoromethoxy)-5-methylsulfanyl-phenyl]-1-[2-[4-[3-(hydroxymethyl)morpholin-4-yl]-1-piperidyl]-2-oxo-ethyl]pyrazol-4-yl]pyrazolo[1,5-a]pyrimidine-3-carboxamide] | 110 nM
0.26 nM | 0.43 nM | CSc1ccc(OC(F)F)c(-c2nn(CC(=O)N3CCC(CN4CCN(C(C)=O)CC4)CC3)cc2NC(=O)c2cnn3cccnc23)c1 [Example 80, N-[1-[2-[4-[(4-acetylpiperazin-1-yl)methyl]-1-piperidyl]-2-oxo-ethy]-3-[2-(difluoromethoxy)-5-methylsulfanyl-phenyl]pyrazol-4-yl]pyrazolo[1,5-a]pyrimidine-3-carboxamide] | 16 nM
